Biological target: T1, hNLRP3 (Homo sapiens, UniProt Q96P20)
T1 construct: THP-1 cells were purchased from the American Type Culture Collection; host or cells: THP-1 cells, PMA-differentiated, stimulated with gramicidin
Experiment: IL-1β production in PMA-differentiated THP-1 cells stimulated with gramicidin (hTHP-1 assay)
Assay type: cell-based
Details: read-out: NLRP3 Antagonist, hNLRP3 (THP-1, IL-1b) Normalized: GeoMean IC50
Method: Procedure 1: IL-1β Production in PMA-Differentiated THP-1 Cells Stimulated with Gramicidin.
THP-1 cells were purchased from the American Type Culture Collection and sub-cultured according to instructions from the supplier. […] Prior to the experiment, compounds were dissolved in dimethyl sulfoxide (DMSO) to generate a 30 mM stock. […] DMSO was backfilled in the plate to achieve a final DMSO assay concentration of 0.37%. The plate was then sealed and stored at room temperature until required.
THP-1 cells were treated with PMA (Phorbol 12-myristate 13-acetate) (20 ng/ml) for 16-18 hours. On the day of the experiment the media was removed and adherent cells were detached with trypsin for 5 minutes.
Procedure 2: IL-1β Production in PMA-Differentiated THP-1 Cells Stimulated with Gramicidin.
THP-1 cells were purchased from the American Type Culture Collection and sub-cultured according to instructions from the supplier. […] Prior to the experiment THP-1 were treated with PMA (Phorbol 12-myristate 13-acetate) (20 ng/ml) for 16-18 hours. Compounds were dissolved in dimethyl sulfoxide (DMSO) to generate a 30 mM stock. On the day of the experiment the media was removed and adherent cells were detached with trypsin for 5 minutes. […] Final DMSO concentration was at 0.37%. Cells were incubated with compounds for 1 hour and then stimulated with gramicidin (5 μM) (Enzo) for 2 hours. Plates were then centrifuged at 340 g for 5 min. Cell free supernatant (40 μL) was collected using a 96-channel PlateMaster (Gilson) and the production of IL-1β was evaluated by HTRF (cisbio).
1. Experimental procedure
1.2 Compound Preparation • Prepare the 3-fold serial dilution of the compounds with DMSO in a 384-well LDV Microplate using TECAN EVO system to generate the compound source plate with 10 concentrations. Top concentration is 30 mM. FIG. 5 depicts the layout of the microplate.
FIG. 5 depicts the layout of the plates: HC: 100 μM CRID3 (MCC950)+5 μM gramicidin LC: 5 μM Gramicidin.
1.5 IL-1β Detection • 1) Homogenize the 5× diluent #5 with a vortex and add 1 volume of stock solution in 4 volumes of distilled water. • 2) Thaw 20× stock solution of anti-IL1β-Cryptate-antibody and anti-IL1β XL-antibody. […] 2. Data Analysis: • 1.

T1 sequence (Q96P20 whole entry): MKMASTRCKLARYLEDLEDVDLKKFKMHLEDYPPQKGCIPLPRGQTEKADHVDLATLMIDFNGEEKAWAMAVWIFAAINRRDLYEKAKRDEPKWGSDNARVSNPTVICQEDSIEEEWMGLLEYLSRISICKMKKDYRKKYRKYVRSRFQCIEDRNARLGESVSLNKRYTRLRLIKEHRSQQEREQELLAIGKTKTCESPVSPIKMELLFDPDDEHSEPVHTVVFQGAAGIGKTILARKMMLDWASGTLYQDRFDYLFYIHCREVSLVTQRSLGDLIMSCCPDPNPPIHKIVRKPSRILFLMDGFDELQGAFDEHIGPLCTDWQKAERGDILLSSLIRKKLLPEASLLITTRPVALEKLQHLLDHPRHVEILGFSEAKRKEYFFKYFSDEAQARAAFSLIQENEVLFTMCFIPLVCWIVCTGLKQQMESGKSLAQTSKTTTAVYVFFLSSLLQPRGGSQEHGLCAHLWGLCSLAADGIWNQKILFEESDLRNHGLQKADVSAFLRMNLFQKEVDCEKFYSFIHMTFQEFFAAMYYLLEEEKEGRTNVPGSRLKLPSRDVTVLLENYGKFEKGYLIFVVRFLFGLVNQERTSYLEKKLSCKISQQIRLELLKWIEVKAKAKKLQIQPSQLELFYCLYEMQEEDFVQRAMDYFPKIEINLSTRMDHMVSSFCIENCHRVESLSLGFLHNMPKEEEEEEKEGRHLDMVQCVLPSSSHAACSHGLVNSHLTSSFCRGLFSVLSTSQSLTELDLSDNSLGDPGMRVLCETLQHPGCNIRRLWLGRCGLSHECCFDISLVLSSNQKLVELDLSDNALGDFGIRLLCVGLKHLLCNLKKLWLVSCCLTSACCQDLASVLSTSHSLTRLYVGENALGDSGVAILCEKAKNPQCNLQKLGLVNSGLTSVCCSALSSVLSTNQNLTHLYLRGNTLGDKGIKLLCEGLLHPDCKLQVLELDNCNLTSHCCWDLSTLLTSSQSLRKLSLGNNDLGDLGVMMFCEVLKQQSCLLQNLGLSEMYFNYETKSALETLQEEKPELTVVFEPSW

| SMILES | IC50 [µM] |
| --- | --- |
| CC(C)(O)c1ccc2c(c1)C(=O)NS2(=O)=NC(=O)Nc1c2c(cc3c1CCC3)CCC2 (single isomer, unassigned) [Compound 121b, (S or R)-1-(1,2,3,5,6,7-hexahydro-s-indacen-4-yl)-3-(5-(2-hydroxypropan-2-yl)-1-oxido-3-oxo-2,3-dihydro-1l4-benzo[d]isothiazol-1-ylidene)urea] | 5 to 30 |
| CN(C)Cc1ccc2c(c1)S(=O)(=NC(=O)Nc1c3c(cc4c1CCC4)CCC3)NC2 (single isomer, unassigned) [Compound 133b, (S or R)-1-(6-((dimethylamino)methyl)-1-oxido-2,3-dihydro-1l4-benzo[d]isothiazol-1-ylidene)-3-(1,2,3,5,6,7-hexahydro-s-indacen-4-yl)urea] | > 30 |
| O=C(N=S1(=O)NC(=O)c2ccccc21)Nc1c2c(cc3c1CCC3)CCC2 (single isomer, unassigned) [Compound 129b, 3-[(1S or 1R)-1,3-dioxo-2,3-dihydro-1-^λ-6,2-benzothiazol-1-ylidene]-1-(1,2,3,5,6,7-hexahydro-s-indacen-4-yl)urea] | 5 to 30 |
| O=C(N=S1(=O)NC(=O)c2ccc(Br)cc21)Nc1c2c(cc3c1CCC3)CCC2 (single isomer, unassigned) [Compound 103a, (R or S)-1-(6-bromo-1-oxido-3-oxo-2,3-dihydro-1l4-benzo[d]isothiazol-1-ylidene)-3-(1,2,3,5,6,7-hexahydro-s-indacen-4-yl)urea] | > 30 |
| O=C(N=S1(=O)CCCN1)Nc1c2c(cc3c1CCC3)CCC2 (centres unmarked) [Compound 119, 1-(1,2,3,5,6,7-hexahydro-s-indacen-4-yl)-3-(1-oxido-1l6-isothiazolidin-1-ylidene)urea] | 5 to 30 |
| Cc1c(C2CC2)nc2c(c1NC(=O)N=S1(=O)NC(=O)c3ccc(C(C)(C)O)cc31)CCC2 (single isomer, unassigned) [Compound 138, (S or R)-1-(2-cyclopropyl-3-methyl-6,7-dihydro-5H-cyclopenta[b]pyridin-4-yl)-3-(6-(2-hydroxypropan-2-yl)-1-oxido-3-oxo-2,3-dihydro-1l4-benzo[d]isothiazol-1-ylidene)urea] | 0.2 to 1 |
| COC(=O)c1ccc2c(c1)S(=O)(=NC(=O)Nc1c3c(cc4c1CCC4)CCC3)NC2=O (centres unmarked) [Compound 134, methyl 1-(((1,2,3,5,6,7-hexahydro-s-indacen-4-yl)carbamoyl)imino)-3-oxo-2,3-dihydro-1H-1l4-benzo[d]isothiazole-6-carboxylate 1-oxide] | 5 to 30 |
| O=C(N=S1(=O)CC2(CN1)COC2)Nc1c2c(cc3c1CCC3)CCC2 (centres unmarked) [Compound 139b] | > 30 |
| O=C(N=S1(=O)NC(=O)c2ccc(CNCC3CC3)cc21)Nc1c2c(cc3c1CCC3)CCC2 (centres unmarked) [Compound 218, 1-(6-(((cyclopropylmethyl)amino)methyl)-1-oxido-3-oxo-2,3-dihydro-1l4-benzo[d]isothiazol-1-ylidene)-3-(1,2,3,5,6,7-hexahydro-s-indacen-4-yl)urea] | 0.2 to 1 |
| CC(O)(CO)c1ccc2c(c1)S(=O)(=NC(=O)Nc1c3c(cc4c1CCC4)CCC3)NC2=O (single isomer, unassigned) [Compound 208b, 1-((1S or R)-6-(1,2-dihydroxypropan-2-yl)-1-oxido-3-oxo-2,3-dihydro-1l4-benzo[d]isothiazol-1-ylidene)-3-(1,2,3,5,6,7-hexahydro-s-iadacen-4-yl)urea] | 0.04 to 0.2 |
| CC(O)(CO)c1ccc2c(c1)S(=O)(=NC(=O)Nc1c3c(cc4c1CCC4)CCC3)NC2=O (centres unmarked) [Compound 208, 1-(6-(1,2-dihydroxypropan-2-yl)-1-oxido-3-oxo-2,3-dihydro-1l4-benzo[d]isothiazol-1-ylidene)-3-(1,2,3,5,6,7-hexahydro-s-indacen-4-yl)urea] | 0.04 to 0.2 |
| CC(C)(O)c1ccc2c(c1)S(=O)(=NC(=O)Nc1c3c(nc4c1CCC4(C)C)CCC3)NC2=O (single isomer, unassigned) [Compound 137, (S or R)-1-(3,3-dimethyl-1,2,3,5,6,7-hexahydrodicyclopenta[b,e]pyridin-8-yl)-3-(6-(2-hydroxypropan-2-yl)-1-oxido-3-oxo-2,3-dihydro-1l4-benzo[d]isothiazol-1-ylidene)urea] | 0.2 to 1 |
| CNC(=O)c1ccc2c(c1)S(=O)(=NC(=O)Nc1c3c(cc4c1CCC4)CCC3)NC2=O (centres unmarked) [Compound 213, 1-(((1,2,3,5,6,7-hexahydro-s-indacen-4-yl)carbamoyl)imino)-N-methyl-3-oxo-2,3-dihydro-1H-1l4-benzo[d]isothiazole-6-carboxamide 1-oxide] | 1 to 5 |
| CC(C)(O)c1ccc2c(c1)S(=O)(=NC(=O)Nc1c3c(nc4c1CCC4)CCC3)NC2=O (centres unmarked) [Compound 117] | 1 to 5 |
| O=C(N=S1(=O)CC2(COC2)C(=O)N1)Nc1c2c(cc3c1CCC3)CCC2 (single isomer, unassigned) [Compound 132a, (S or R)-1-(1,2,3,5,6,7-hexahydro-s-indaccn-4-yl)-3-(6-oxido-8-oxo-2-oxa-6l6-thia-7-azaspiro[3.4]octan-6-ylidene)urea] | 1 to 5 |
| CC(C)(O)c1ccc2c(c1)S(=O)(=NC(=O)Nc1c3c(nc4c1CCC4(C)C)CCC3)NC2=O (centres unmarked) [Compound 118, 1-(3,3-dimethyl-1,2,3,5,6,7-hexahydrodicyclopenta[b,e]pyridin-8-yl)-3-(6-(2-hydroxypropan-2-yl)-1-oxido-3-oxo-2,3-dihydro-1l4-benzo[d]isothiazol-1-ylidene)urea] | 1 to 5 |
| O=C(N=S1(=O)NC(=O)c2ccc(Br)cc21)Nc1c2c(cc3c1CCC3)CCC2 (centres unmarked) [Compound 103, 1-(6-bromo-1-oxido-3-oxo-2,3-dihydro-1l4-benzo[d]isothiazol-1-ylidene)-3-(1,2,3,5,6,7-hexahydro-s-indacen-4-yl)urea] | 1 to 5 |
| Cc1c(C2CC2)nc2c(c1NC(=O)N=S1(=O)NC(=O)c3ccc(C(C)(C)O)cc31)CCC2 (centres unmarked) [Compound 105, 1-(2-cyclopropyl-3-methyl-6,7-dihydro-5H-cyclopenta[b]pyridin-4-yl)-3-(6-(2-hydroxypropan-2-yl)-1-oxido-3-oxo-2,3-dihydro-1l4-benzo[d]isothiazol-1-ylidene)urea] | 0.2 to 1 |
| COC(=O)Cc1ccc2c(c1)S(=O)(=NC(=O)Nc1c3c(cc4c1CCC4)CCC3)NC2=O (centres unmarked) [Compound 209, methyl 2-(1-(((1,2,3,5,6,7-hexahydro-s-indacen-4-yl)carbamoyl)imino)-1-oxido-3-oxo-2,3-dihydro-1H-1l4-benzo[d]isothiazol-6-yl)acetate] | 5 to 30 |
| CC(C)c1cc(C(F)F)cc(C(C)C)c1CC(=O)N=S1(=O)NC(=O)c2ccccc21 (centres unmarked) [Compound 123a] | > 30 |
| CN(C)Cc1ccc2c(c1)CNS2(=O)=NC(=O)Nc1c2c(cc3c1CCC3)CCC2 (centres unmarked) [Compound 122, 1-{5-[(dimethylamino)methyl]-1-oxo-2,3-dihydro-1$l6,2-benzothiazol-1-ylidene}-3-(1,2,3,5,6,7-hexahydro-s-indacen-4-yl)urea] | 5 to 30 |
| CN(C)Cc1ccc2c(c1)S(=O)(=NC(=O)Nc1c3c(cc4c1CCC4)CCC3)NC2 (centres unmarked) [Compound 133, 1-(6-((dimethylamino)methyl)-1-oxido-2,3-dihydro-1l4-benzo[d]isothiazol-1-ylidene)-3-(1,2,3,5,6,7-hexahydro-s-indacen-4-yl)urea] | 5 to 30 |
| O=C(N=S1(=O)NC(=O)c2ccccc21)Nc1c2c(cc3c1CCC3)CCC2 (racemic) [Compound 129, 3-(1,3-dioxo-2,3-dihydro-1-^λ-6,2-benzothiazol-1-ylidene)-1-(1,2,3,5,6,7-hexahydro-s-indacen-4-yl)urea] | 1 to 5 |
| O=C(N=S1(=O)NCc2ccccc21)Nc1c2c(cc3c1CCC3)CCC2 (single isomer, unassigned) [Compound 130a, 1-(1,2,3,5,6,7-hexahydro-s-indacen-4-yl)-3-[(1S or 1R)-1-oxo-2,3-dihydro-1-^λ-6,2-benzothiazol-1-ylidene]urea] | > 30 |
| O=C1CCCS(=O)(=NC(=O)Nc2c3c(cc4c2CCC4)CCC3)N1 (centres unmarked) [Compound 113, 1-(1,2,3,5,6,7-hexahydro-s-indacen-4-yl)-3-(1-oxido-3-oxo-1l6,2-thiazinan-1-ylidene)urea] | 1 to 5 |
| CC(C)(O)c1ccc2c(c1)S(=O)(=NC(=O)Nc1c3c(cc4c1CC4)CCC3)NC2=O (single isomer, unassigned) [Compound 112a, (R or S)-1-(6-(2-hydroxypropan-2-yl)-1-oxido-3-oxo-2,3-dihydro-1l4-benzo[d]isothiazol-1-ylidene)-3-(2,4,5,6-tetrahydro-1H-cyclobuta[f]inden-3-yl)urea] | 0.04 to 0.2 |

From US12134611B2, “Compounds and compositions for treating conditions associated with NLRP activity” (Novartis AG, priority 2018, dated 2024)
